These results are taken from patent US8912181B2 (Taiho Pharmaceutical Co., Ltd., priority 2011, dated 2014).

The subject of one experiment is SK-BR-3 cells. As to the kind of experiment: Determination of cell growth inhibition (crystal violet staining method). In kind it is cell-based. Particulars: Homo sapiens; breast cancer cells SK-BR-3, 72 hours culture with test substance. Summed up:
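SK-BR-3 cells seeded 5,000/well, cultured 24 h at 37 °C, then exposed to compound for 72 h. Cells fixed with glutaraldehyde, stained with 0.05% crystal violet, eluted and read at 540 nm; percent growth inhibition calculated versus untreated wells.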

In experiment [1] the target is human HSP90 alpha protein (N-terminal, amino acids 2 to 236) (Homo sapiens (Human), UniProt P07900). Kind of experiment: Determination of HSP90-binding activity (AlphaScreen competitive assay with biotinylated geldanamycin). The conditions noted are these: inhibition of binding of biotinylated geldanamycin to purified HSP90 N-terminal protein, read-out: HSP-binding activity IC50. Put shortly:
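His-tagged N-terminal construct (aa 2–236) expressed in E. coli and purified was preincubated with compound 2 h at room temperature, then biotinylated geldanamycin (40 nM/well) added for 1 h. AlphaScreen nickel-chelate acceptor/streptavidin donor beads, 1 h dark; percent inhibition calculated against no-compound signal.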

SMILES strings stand for the structures.

One may read the IC50 as the concentration that inhibits the measured activity by half. For `CCc1cc(-c2ccc(C(N)=O)c(N)c2)c2cccc(-n3cnc(-c4ccc(C)nc4)c3)c2n1` [Example 124, 2-Amino-4-(2-ethyl-8-(4-(6-methylpyridin-3-yl)-1H-imidazol-1-yl)quinolin-4-yl)benzamide], the IC50 in the experiment on SK-BR-3 cells was found to be 20 nM; in experiment [1] it was 130 nM.

In the case of `CCc1cc(-c2ccc(C(N)=O)c(N)c2)c2cccc(-n3cnc(-c4cnn(C)c4)c3)c2n1` [Example 104, 2-Amino-4-(2-ethyl-8-(4-(1-methyl-1H-pyrazol-4-yl)-1H-imidazol-1-yl)quinolin-4-yl)benzamide], the figures for the IC50 (with SK-BR-3 cells; in experiment [1]) were 10 nM and 60 nM, respectively.

`NC(=O)c1ccc(-c2nccc3c(-c4cnc5nc[nH]c5c4)cccc23)cc1NC1CCC(O)CC1` (centres unmarked) [Example 12]: the IC50 with SK-BR-3 cells was determined as 170 nM; in experiment [1], 70 nM.

As to `CC(C)OCCNc1cc(-c2cc(C(F)(F)F)nc3c(-c4cnc5ccccc5c4)cccc23)ccc1C(N)=O` [Example 111, 2-(2-Isopropoxyethylamino)-4-(2′-(trifluoromethyl)-3,8′-biquinolin-4′-yl)benzamide], the IC50 came out at 60 nM in the experiment on SK-BR-3 cells and 840 nM in experiment [1].

Turning to `Cn1cc(-c2cn(-c3cccc4c(-c5ccc(C(N)=O)c(NC(C)(C)C)c5)cc(C5CC5)nc34)cn2)cn1` [Example 105, 2-(Tert-butylamino)-4-(2-cyclopropyl-8-(4-(1-methyl-1H-pyrazol-4-yl)-1H-imidazol-1-yl)quinolin-4-yl)benzamide], the results for the IC50 (in the experiment with SK-BR-3 cells; in experiment [1]) were 20 nM and 400 nM, respectively.

For `Cc1cc2c(-n3cnc(-c4cnn(C)c4)c3)cccc2c(-c2ccc(C(N)=O)c(NC(C)(C)C)c2)n1` [Example 93, 2-(Tert-butylamino)-4-(3-methyl-5-(4-(1-methyl-1H-pyrazol-4-yl)-1H-imidazol-1-yl)isoquinolin-1-yl)benzamide], the IC50 was found to be 20 nM with SK-BR-3 cells and 100 nM in experiment [1].

Turning to `CC(C)c1cc(-c2ccc(C(N)=O)c(NC(C)(C)C)c2)c2cccc(-n3cnc(-c4cnn(C)c4)c3)c2n1` [Example 112, 2-(Tert-butylamino)-4-(2-isopropyl-8-(4-(1-methyl-1H-pyrazol-4-yl)-1H-imidazol-1-yl)quinolin-4-yl)benzamide], the IC50 with SK-BR-3 cells stood at 20 nM; in experiment [1], 500 nM.

Consider `CCNc1cc(-c2cc(C(F)(F)F)nc3c(-n4cnc(-c5cccnc5)c4)cccc23)ccc1C(N)=O` [Example 77, 2-(Ethylamino)-4-(8-(4-(pyridin-3-yl)-1H-imidazol-1-yl)-2-(trifluoromethyl)quinolin-4-yl)benzamide], for which the IC50 was 10 nM in the experiment with SK-BR-3 cells and 170 nM in experiment [1].

`CC(C)(C)Nc1cc(-c2ccnc3c(-n4cnc(-c5cccnc5)c4)cccc23)ccc1C(N)=O` [Example 131, 2-(Tert-butylamino)-4-(8-(4-(pyridin-3-yl)-1H-imidazol-1-yl)quinolin-4-yl)benzamide]: the IC50 is 140 nM with SK-BR-3 cells and 260 nM in experiment [1].

Regarding `NC(=O)c1ccc(-c2nccc3c(-c4cnc5cc[nH]c5c4)cccc23)cc1NC1CCC(O)CC1` (centres unmarked) [Example 39, 4-(5-(1H-Pyrrolo[3,2-b]pyridin-6-yl)isoquinolin-1-yl)-2-(4-hydroxycyclohexylamino)benzamide], the results for the 50% inhibitory concentration (IC50) (with SK-BR-3 cells; in experiment [1]) were 10 nM and 130 nM, respectively.

For `Cn1cc(-c2cn(-c3cccc4c(-c5ccc(C(N)=O)c(NC(C)(C)C)c5)nccc34)cn2)cn1` [Example 96, 2-(Tert-butylamino)-4-(5-(4-(1-methyl-1H-pyrazol-4-yl)-1H-imidazol-1-yl)isoquinolin-1-yl)benzamide], the IC50 in the experiment with SK-BR-3 cells is 60 nM; in experiment [1], 140 nM.

Regarding `CCn1cc(-c2cn(-c3cccc4c(-c5ccc(C(N)=O)c(NC(C)(C)C)c5)cc(C(F)(F)F)nc34)cn2)cn1` [Example 90, 2-(Tert-butylamino)-4-(8-(4-(1-ethyl-1H-pyrazol-4-yl)-1H-imidazol-1-yl)-2-(trifluoromethyl)quinolin-4-yl)benzamide], the IC50 in the experiment on SK-BR-3 cells came out at 30 nM; in experiment [1], 580 nM.

With `Cc1cc2c(-n3cnc(-c4cnn(C)c4)c3)cccc2c(-c2ccc(C(N)=O)c(NCC3CC3)c2)n1` [Example 68, 2-(Cyclopropylmethylamino)-4-(3-methyl-5-(4-(1-methyl-1H-pyrazol-4-yl)-1H-imidazol-1-yl)isoquinolin-1-yl)benzamide], the IC50 came to 10 nM in the experiment with SK-BR-3 cells and 190 nM in experiment [1].

On to `NC(=O)c1ccc(-c2nccc3c(-c4cnc5nccnc5c4)cccc23)cc1NC1CCC(O)CC1` (centres unmarked) [Example 13, 2-(4-Hydroxycyclohexylamino)-4-(5-(pyrido[2,3-b]pyrazin-7-yl)isoquinolin-1-yl)benzamide], for which the IC50 in the experiment on SK-BR-3 cells came out at 580 nM; in experiment [1], 450 nM.

Take `CC(=O)Nc1cncc(-c2cccc3c(-c4ccc(C(N)=O)c(NC5CCC(O)CC5)c4)nccc23)c1` (centres unmarked) [Example 27, 4-(5-(5-Acetamidepyridin-3-yl)isoquinolin-1-yl)-2-(4-hydroxycyclohexylamino)benzamide]: the IC50 in the experiment with SK-BR-3 cells turned out to be 540 nM; in experiment [1], 150 nM.

Take `CCCNc1cncc(-c2cccc3c(-c4ccc(C(N)=O)c(NC5CCC(O)CC5)c4)nccc23)c1` (centres unmarked) [Example 35, 2-(4-Hydroxycyclohexylamino)-4-(5-(5-(propylamino)pyridin-3-yl)isoquinolin-1-yl)benzamide]: the IC50 with SK-BR-3 cells came out at 460 nM; in experiment [1] it was 1490 nM.

In the case of `CN(C)CNC(=O)c1ccc(-c2nccc3c(-c4cnc5ccccc5c4)cccc23)cc1NC1CCC(O)CC1` (centres unmarked) [Example 38, N-((dimethylamino)methyl)-2-(4-hydroxycyclohexylamino)-4-(5-(quinolin-3-yl)isoquinolin-1-yl)benzamide], the IC50 in the experiment with SK-BR-3 cells stood at 40 nM; in experiment [1], 980 nM.

Turning to `Cc1cc2c(-n3cnc(-c4cnn(C)c4)c3)cccc2c(-c2ccc(C(N)=O)cc2N)n1` [Example 74, 3-Amino-4-(3-methyl-5-(4-(1-methyl-1H-pyrazol-4-yl)-1H-imidazol-1-yl)isoquinolin-1-yl)benzamide], the IC50 in the experiment on SK-BR-3 cells was 1120 nM; in experiment [1], 440 nM.

On to `NC(=O)c1ccc(-c2cc(C(F)(F)F)nc3c(-n4cnc(-c5cccnc5)c4)cccc23)cc1N` [Example 78, 2-Amino-4-(8-(4-(pyridin-3-yl)-1H-imidazol-1-yl)-2-(trifluoromethyl)quinolin-4-yl)benzamide], for which the values for the IC50 (with SK-BR-3 cells; in experiment [1]) were 30 nM and 180 nM, respectively.

Turning to `NC(=O)c1ccc(-c2nccc3c(-c4cnc5cc(C=O)ccc5c4)cccc23)cc1NC1CCC(O)CC1` (centres unmarked) [Example 45, 4-(5-(7-Formylquinolin-3-yl)isoquinolin-1-yl)-2-(4-hydroxycyclohexylamino)benzamide], the figures for the IC50 (in the experiment with SK-BR-3 cells; in experiment [1]) were 30 nM and 220 nM, respectively.

On to `Cn1cc(-c2cn(-c3cccc4c(-c5ccc(C(N)=O)c(NCC6CCCO6)c5)nccc34)cn2)cn1` (centres unmarked) [Example 59, 4-(5-(4-(1-Methyl-1H-pyrazol-4-yl)-1H-imidazol-1-yl)isoquinolin-1-yl)-2-((tetrahydrofuran-2-yl)methylamino)benzamide], for which the values for the half-inhibitory concentration (IC50) (in the experiment on SK-BR-3 cells; in experiment [1]) were 90 nM and 100 nM, respectively.

As for `CCc1nc2ncc(-c3cccc4c(-c5ccc(C(N)=O)c(NC6CCC(O)CC6)c5)nccc34)cc2[nH]1` (centres unmarked) [Example 41, 4-(5-(2-Ethyl-1H-imidazo[4,5-b]pyridin-6-yl)isoquinolin-1-yl)-2-(4-hydroxycyclohexylamino)benzamide], the IC50 with SK-BR-3 cells turned out to be 1270 nM; in experiment [1] it was 390 nM.
